Measurements published in US20100144683A1, “METHODS FOR GENERATING MAMMALIAN MODELS OF ATOPIC DISEASES, AND SCREENING FOR THEIR TREATMENT” (ASSOCIATION POUR LA RECHERCHE A L'IGBMC (ARI), priority 2006, published 2010).
“Also recorded” adds a separate entry of the source.

Legend:
TSLP [1] = assay: Serum TSLP levels after topical application; assay type: in vivo, mouse; conditions: MC903 topical; D2-D4, undetectable at D0
Procedure: (§1) 1α,25-(OH)2D3, or MC903 and ethanol (vehicle) were applied to WT mouse right and left ears, respectively. Two shaved areas (1 cm^2 each) of dorsal skin were also treated with MC903 or ethanol.

[2] = tested on: OVA-induced asthma mouse model; assay: Ovalbumin (OVA)-induced asthma mouse model with ear topical MC903; assay type: in vivo; conditions: MC903 1.125 nmole on each ear every other day, day 0 to 21, day 22
Procedure: An experimental ovalbumin (OVA)-induced asthma mouse model was used. Mice were intraperitoneally injected with 50 μg OVA adsorbed on 2 mg aluminium hydroxide (Alum) on days 0 and 7, and were then challenged on days 18, 19, 20 and 21 by intranasal instillations of 10 μg OVA. As controls, mice were intraperitoneally injected with Alum, and receive intranasal instillations of saline. These mice were topically treated with either ethanol (as a control) or MC903 (1.125 nmole) on each ear every other day from day 0 to day 21 to generate an ear AD. Assessment of respiratory function, collection of bronchoalveolar lavage (BAL) and lung were performed on day 22. […] Aerosolized saline was used as control.

TSLP [3] = assay: TSLP RNA level (Q-PCR) in skin and organs after topical application of NR agonists; assay type: in vivo, mouse; conditions: increasing doses (MC903: 0.4, 1 or 4 nmoles per ear)
serum IgE and IgG = assay: Serum IgE and IgG levels (ELISA); assay type: in vivo, mouse; conditions: MC903 topically for 16 days on ears
TSLP [4] = assay: TSLP immunohistochemistry on ear and dorsal skin sections; assay type: in vivo, mouse; conditions: MC903-treated ear and dorsal skin; D4
Text: The white arrowhead points to autofluorescent erythrocytes, and white arrows point to the dermal/epidermal junction. (Scale bar, 50 μm).

CYP24A1 = CYP24A1 RNA level (Q-PCR) in MC903-treated ear; assay type: in vivo, mouse; conditions: MC903 topically every day; D2-D4
Procedure: as §1

RXR/VDR heterodimers = target: T1, RXR/VDR heterodimers (Mus musculus, UniProt P48281); assay: MC903 topical treatment of RXRαβep-/- mice, TSLP RNA (Q-PCR); assay type: in vivo; conditions: D4, versus RXRαβ CT
T1 construct: from tissue; host or cells: mouse ear skin (epidermal keratinocytes), topical treatment in vivo
T1 sequence (P48281 1-422): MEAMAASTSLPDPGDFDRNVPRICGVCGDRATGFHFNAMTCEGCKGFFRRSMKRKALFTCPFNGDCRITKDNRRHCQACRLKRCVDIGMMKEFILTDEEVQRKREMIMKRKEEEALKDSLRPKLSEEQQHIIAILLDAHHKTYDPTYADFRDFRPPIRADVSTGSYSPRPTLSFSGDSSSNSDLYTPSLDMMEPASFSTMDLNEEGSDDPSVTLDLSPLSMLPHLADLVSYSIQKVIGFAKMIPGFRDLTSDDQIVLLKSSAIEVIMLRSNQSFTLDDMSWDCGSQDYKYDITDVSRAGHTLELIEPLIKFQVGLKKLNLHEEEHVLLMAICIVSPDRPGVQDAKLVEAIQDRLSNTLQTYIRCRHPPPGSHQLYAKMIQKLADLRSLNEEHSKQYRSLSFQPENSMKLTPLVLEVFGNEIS
Text: To examine whether the effect of MC903 was transduced through RXR/VDR heterodimers, ears of RXRαβ^ep−/− mice (tamoxifen-treated K14-Cre-ERT2^(tg/0)/RXRαβ^L2/L2/RXRβ^L2/L2; LI et al., 2005, abovementioned), as well as their control littermates (RXRαβ CT), were topically-treated with MC903.

TSLP [5] = assay: TSLP RNA level (Q-PCR) in skin and organs after topical application of NR agonists; assay type: in vivo, mouse
Procedure: Four nmoles of ligands dissolved in ethanol were topically applied to whole ears of 6-8-week-old female CD1 wildtype (WT) mice for 4 consecutive days (D1 to D4), and TSLP RNA levels were determined on day 5.
as §1

eosinophils = assay: Blood and tissue eosinophilia; assay type: in vivo, mouse; conditions: MC903-treated mice
Text: FIG. 2 s show the hematoxylin and eosin-stained sections of ear draining lymph node and liver of ethanol- and MC903-treated mice at D17. Yellow arrows point to three of many eosinophils (red cytoplasmic staining) in sections of lymph node and liver of MC903-treated mice. (Scale bars, 50 μm).

VDR = assay: MC903 topical treatment of VDR control, VDRep-/- and VDR-/- mice; assay type: in vivo, mouse
Text: To investigate whether the MC903-induced TSLP expression and appearance of an AD-like skin inflammation were mediated through VDR, MC903 was topically applied on ears of “floxed” VDR control (CT) mice (VDR^L2/L2 mice, in which both VDR alleles bear LoxP sites) and of their VDR^ep−/− littermates [K14-Cre^(tg/0)/VDR^L2/L2 mice in which the VDR alleles are selectively ablated in keratinocytes and which were obtained by crossing)K14-Cre^(tg/0) transgenic mice (LI et al., Development, vol. 128, p: 675-688, 2001) with floxed VDR^L2/L2 mice (our unpublished data)].
The FIGS. 3 a and b show the appearance of MC903-treated ears of VDR control (CT) (a) and VDR^ep−/− mice (b) at D17. White arrows in (a) points to lesioned skin.
The FIGS. 3 c and d show Hematoxylin and eosin-stained ear sections. Yellow arrows in inset of (c) point to three of many eosinophils (red cytoplasmic staining) in MC903-treated CT skin. Black arrows point to the dermal/epidermal junction. hf, hair follicle; u, utriculi (resulting from hair follicle degeneration in VDR^ep−/− mice). (Scale bar, 50 μm).

[6] = Calcemia and overall health upon topical application; assay type: in vivo; conditions: MC903 4 nmoles daily or 1α,25(OH)2D3 0.25 nmole every second day on ears, 16 days
Procedure: 1α,25-(OH)2D3, or MC903 and ethanol (vehicle) were applied to WT mouse right and left ears, respectively. Two shaved areas (1 cm^2 each) of dorsal skin were also treated with MC903 or ethanol. […]

[7] = tested on: ears of CD1 wildtype (WT) mice; assay: AD-like phenotype upon long-term ear topical treatment (appearance, histology, IHC); assay type: in vivo, mouse
Text: White arrows point to the dermal/epidermal junction. FIGS. 2a and b show the ear appearance at day 17 after ethanol and MC903 treatment, respectively. FIGS. 2c and d show hematoxylin and eosin-stained (HE) ear sections of ethanol- and MC903-treated mice at day 17, respectively. Eosinophil-selective cytoplasmic red staining is pointed by arrows in the inset of (d). FIG. 2 u show hematoxylin and eosin-stained (HE) ear sections of ethanol- and 1α,25(OH)2D3 treated mice every second day, at a dose of 0.25 nmole, at day 18 (D18). FIGS. 2 e to n show the result of IHC performed on ear sections from ethanol- or MC903-treated mice at D17, with antibodies against GR1 (e and f), CD3 (g and h), CD4 (i and j), CD8 (k and l) and CD11c (m and n). Yellow color corresponds to staining of antibodies, whereas blue corresponds to DAPI staining of nuclei. FIGS. 2 o and p show the Toluidin blue (TB)-staining of ear sections. Red arrows point to one of the mast cells with intense blue color in the dermis.

cytokine RNA = assay: Cytokine RNA levels (Q-PCR) in treated ears; assay type: in vivo, mouse; conditions: MC903 4 nmoles daily on ears; D16

With “26,27-cyclo-22-ene-1α,24S-dihydroxyvitamin D3 [MC903]” the “serum TSLP levels” value (TSLP [1]) was “increased”, the BAL cell numbers ([2]; OVA model) was “higher BAL cell numbers” and the “airway epithelium hypertrophy (lung sections)” value ([2]; OVA model) was “increased hypertrophy in airway epithelium”. For the same substance, the “lung inflammatory infiltration (lung sections)” value ([2]; OVA model) was “higher perivascular and peribronchial lung inflammatory infiltrations; also recorded: enhanced airway inflammation”, the “airway hyperresponsiveness (AHR), whole-body plethysmography” value ([2]; OVA sensitized and challenged) was “increased airway hyperresponsiveness” and the “dose dependence of TSLP transcripts” value (TSLP [3]) was “dose-dependent increase”. The “serum IgE and IgG levels” value (serum IgE and IgG) was “increased”, the “TSLP expression by immunohistochemistry in epidermis” value (TSLP [4]) was “readily detected” and the “CYP24A1 transcripts in treated ear” value (CYP24A1) was “increased”. The “induction of TSLP in RXRαβep-/- skin” value (RXR/VDR heterodimers) was “severely reduced”, the “TSLP RNA in treated dorsal skin” value (TSLP [5]; MC903 on shaved dorsal skin (1 cm^2), D2-D4) was “increased” and the “TSLP RNA levels in treated right ear” value (TSLP [5]; MC903 topically every day on right ear of WT mice, D2, D3, D4, ethanol on left ear) was “increased in right ears, and further increased on D3 and D4”. The “TSLP transcripts in other organs (lung, thymus, salivary gland, tongue, colon, spleen, lymph node, liver)” value (TSLP [5]; MC903 topically on ears, D5) was “no increase”, the “eosinophils in ear-draining lymph nodes, liver and spleen” value (eosinophils; D16) was “increased number of eosinophils” and the “blood eosinophils (differential blood cell counts)” value (eosinophils; ethanol-treated mice 204±134) was 693±220 cells/μl. For the same substance, the “skin inflammation in VDR-/- mice” value (VDR) was “no AD-like skin inflammation”, the “TSLP expression (Q-PCR) in skin of VDR CT mice” value (VDR; D4) was “strongly induced” and the “TSLP expression (Q-PCR) in skin of VDR-/- mice” value (VDR; D4) was “not at all”. For the same substance, the “TSLP expression (Q-PCR) in skin of VDRep-/- mutants” value (VDR; D4) was “weakly increased”, the “ear inflammation in VDR CT mice” value (VDR; D17) was “AD-like inflammation was obvious” and the “ear inflammation in VDRep-/- mice” value (VDR; D17) was “did not show any sign of inflammation”. For the same substance, the “hypercalcemia, overall health, weight loss” value [6] was “No hypercalcemia or overall health impairment and weight loss”, the ear appearance ([7]; MC903 4 nmoles daily or 1α,25(OH)2D3 0.25 nmole every second day, from D5, D17) was “reddening and swelling, that worsened with time; also recorded: red, scaly, swollen and crusted” and the “ear histology (hematoxylin/eosin)” value ([7]; MC903 4 nmoles daily, D17, 1α,25-(OH)2D3 0.25 nmole every other day, D18) was “epidermal hyperplasia and a heavy dermal cell infiltrate”. The “CD11c+ dermal dendritic cells (IHC)” value ([7]; MC903-treated ears, D17) was “large increase”, the “GR1-positive cells in dermis (IHC)” value ([7]; MC903-treated ears, D17) was “large number of positive cells” and the “T lymphocytes (CD3+) in dermis (IHC)” value ([7]; MC903-treated ears, D17) was “Numerous”. The “increase of mast cells in the dermis” value ([7]; MC903-treated ears, D17, Toluidin blue staining) was 4 fold, the “TSLP transcripts in treated ears, long-term” value (cytokine RNA) was “markedly increased” and the “Th2-type cytokine transcripts (IL-4, IL-5, IL-13, IL-31, IL10 and IL-6)” value (cytokine RNA) was “significantly increased”. For the same substance, the “expression of Th1-type cytokine IFN-γ” value (cytokine RNA) was “enhanced” and the “expression of Th1-type cytokine TNF-β” value (cytokine RNA) was “unchanged”.
